Assay results from article PMC3790770 (PLoS ONE, 2013).

Target: T1, maltose binding protein (MBP) (Escherichia coli, UniProt P0AEX9)
T1 construct: resulting in an ampicillin-resistant plasmid that expresses cytoplasmic, full-length MBP; made in house
Test: Titration monitored by tryptophan fluorescence peak wavelength
Conditions: sucrose up to ∼[…] without maltose and ∼0.9 M with maltose, 37 °C, pH 7.2
Procedure: Experiments were performed on a Cary 300 Fluorimeter using 200 nM MBP in 100 mM sodium phosphate buffer (pH 7.2) at 37 °C. […] Crowder titrations were conducted with multiple samples, as addition of crowding agent to concentrations reaching 300 g/L was not feasible in the same sample without large volume and MBP concentration changes.
Data were analyzed using two different models: a two-state binding model (Figure 2A), and a three-state competitive binding model (Scheme 1).
Now, [P] represented the sum of the two ligand-free species, i.e., the free protein P and the protein-crowder complex.

OC[C@H]1O[C@@](CO)(O[C@H]2O[C@H](CO)[C@@H](O)[C@H](O)[C@H]2O)[C@@H](O)[C@@H]1O [sucrose]
binding to MBP (sucrose titration): no apparent 1∶1 binding to MBP
